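Briefly, cells in 96-well plates were exposed to five compound concentrations for 48 h, and endpoints were estimated by linear interpolation. GI50 marks 50% less growth. At the TGI there is no net growth.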
Legend:
Assay in all cases: growth of human tumour cells (NCI), 48 h
UACC-62 melanoma = test system: UACC-62 melanoma
HCT-116 colon = test system: HCT-116 colon
HT29 colon = test system: HT29 colon
A549 NSCLC = test system: A549 NSCLC
SR leukemia = test system: SR leukemia
HL-60(TB) leukemia = test system: HL-60(TB) leukemia
SK-MEL-5 melanoma = test system: SK-MEL-5 melanoma
UO-31 renal = test system: UO-31 renal
PC-3 prostate = test system: PC-3 prostate
T-47D breast = test system: T-47D breast

Compound | TGI (UACC-62 melanoma) [µM] | TGI (HCT-116 colon) [µM] | TGI (HT29 colon) [µM] | TGI (A549 NSCLC) [µM] | TGI (SR leukemia) [µM] | TGI (HL-60(TB) leukemia) [µM] | TGI (SK-MEL-5 melanoma) [µM] | TGI (UO-31 renal) [µM] | GI50 (UACC-62 melanoma) [µM] | GI50 (HCT-116 colon) [µM] | GI50 (HT29 colon) [µM] | GI50 (A549 NSCLC) [µM] | GI50 (SR leukemia) [µM] | GI50 (HL-60(TB) leukemia) [µM] | GI50 (SK-MEL-5 melanoma) [µM] | GI50 (UO-31 renal) [µM] | GI50 (PC-3 prostate) [µM] | TGI (PC-3 prostate) [µM] | GI50 (T-47D breast) [µM] | TGI (T-47D breast) [µM]
O=C(Cc1nc2ccccc2s1)Nc1ccc(Cl)cc1 | > 100 | > 100 | > 100 | > 100 | > 100 | > 100 | > 100 | > 100 |  |  |  |  |  |  |  |  |  |  |  | 
NC(=NCCCC1(c2ccccc2)CCCC1)Nc1ccc(Cl)cc1 | 3.2 | 2.86 | 3.17 | 3.61 | 4.24 | 3.67 | 2.93 | 3 | 1.68 | 1.44 | 1.72 | 1.89 | 1.71 | 1.73 | 1.58 | 1.5 | 1.6 | 3.12 |  | 
C#Cc1c(C)c(/C=C/C(C)=C/C=C/C(C)=C/C(=O)OC)n(C)c1C | > 100 | > 100 | > 100 | > 100 | > 100 | > 100 |  | > 100 |  |  |  |  |  |  |  |  |  |  |  | 
COc1ccc2c(c1O)C(=O)C(CCC(=O)O)CC2 (stereo unspecified) | > 100 | > 100 | > 100 | > 100 |  | > 100 | > 100 |  |  |  |  |  |  |  |  |  |  |  |  | 
O=C(NCCO)c1cc2c(cn1)[nH]c1ccccc12 | > 100 | > 100 | > 100 | > 100 |  | > 100 | > 100 | > 100 |  |  |  |  |  |  |  |  |  |  |  | 
CCN(CC)c1ccc(C2CC(c3cc(OC)c(OC)c(OC)c3)=NN2)cc1 (stereo unspecified) | > 68.2 | > 100 | > 43 | > 32.2 | 1.73 | 2.7 | 3.52 | > 100 | 0.446 | 0.744 | 0.365 | 0.591 | 0.286 | 0.59 | 0.706 | 1.5 | 0.342 | 35.2 |  | 
NCCCCCCCCn1c2c(c3ccccc3c1=O)C(=O)c1ccccc1-2 | 14.1 |  | 4.02 | 50.8 |  | 6.23 | 3.94 | 12.3 | 3.76 |  | 1.86 | 8.93 |  | 2.34 | 1.91 | 3.36 | 5.05 | 23.3 | 4.97 | 36.6
Cc1cccc(-c2nn3c(c2-c2ccnc4ccc(C(N)=O)cc24)CCC3)n1 | > 100 | > 100 | > 100 | > 100 |  | > 100 | > 100 | > 100 | 78.8 | > 100 | 52.5 | > 100 |  | > 100 | > 100 | > 100 | > 100 | > 100 | 57.6 | > 100
O=C(O)C1=C(C(=O)Nc2ccccc2)C2C=CC1C2 (stereo unspecified) | > 100 | > 100 | > 100 | > 100 | > 100 | > 100 | > 100 | > 100 |  |  |  |  |  |  |  |  |  |  |  | 
C=CCCOC(=O)CO[N+](=O)[O-] |  | > 100 | > 100 | > 100 | > 100 | 70.1 |  | > 100 |  |  |  |  |  |  |  |  |  |  |  | 
CCSC(SCC)c1cc2c(cc1Br)OCO2 | > 100 | 82.6 | 44.8 | > 100 |  | 38 | 38.4 | 85.3 |  |  |  |  |  |  |  |  |  |  |  | 
Cc1ccc2c(c1)C(C)Cc1c(ncnc1-n1cnc3cc(C)ccc31)N2C (stereo unspecified) | 16.7 | 5.21 | 0.195 | 13.4 | 13.4 | 0.0557 | 0.165 | 12.3 | 0.086 | 0.0316 | 0.0302 | 0.0421 | 0.0449 | 0.025 | 0.0324 | 0.0729 | 0.0434 | 16.5 |  | 
COc1ccc(/C=C/C(=O)C(C)(C)CN2CCCCC2)cc1 | 65.5 | 30.8 | 33 | 74.3 |  | 37.9 | 35.5 | 41.3 |  |  |  |  |  |  |  |  |  |  |  | 
CC(/C=C/C(=O)c1sc(-n2nc(-c3ccccc3)cc2-c2ccccc2)nc1C)=C\c1ccccc1 | > 100 | > 100 |  | > 100 | > 100 | > 100 | > 100 | > 100 |  |  |  |  |  |  |  |  |  |  |  | 
COc1ccccc1/C=C/C(=O)c1c(O)cc2occc2c1OC | > 100 | > 100 | > 100 | > 100 |  |  | > 100 | > 100 | 23.7 | 40.4 | > 100 | > 100 |  |  | > 100 | > 100 | > 100 | > 100 | 55.9 | > 100
Cc1nnc(N=Nc2c(O)[nH]c3c(Cl)cc(Cl)cc23)n1N | > 100 | > 100 | > 100 | > 100 | > 100 | > 100 |  | > 100 |  |  |  |  |  |  |  |  |  |  |  | 
CC(=O)[O-].CC(=O)[O-].O=C(N/N=C/c1cc(Cl)cc(Cl)c1O)c1ccncc1.[Ni+2] | > 100 | > 100 | > 100 | > 100 | > 100 | 45.3 | > 100 | > 100 |  |  |  |  |  |  |  |  |  |  |  | 
Nc1nc(Cl)cc(NCCCCCNc2cc(Cl)nc(N)n2)n1 | 83.9 | > 100 | > 100 | > 100 | > 100 | > 100 | > 100 | > 100 |  |  |  |  |  |  |  |  |  |  |  | 
COc1ccccc1-c1cc(/C=C2\C(=O)Nc3ncc(Br)cc32)cc(Br)c1O | > 25 | > 25 | > 25 | > 25 |  | 23.7 | > 25 | > 25 | 6.91 | 10.2 | 18.9 | 11.8 |  | 7.47 | 11.4 | 4.49 | 9.18 | > 25 | 10.6 | > 25
COCc1c(CO)cnc(C)c1OC1OC(CO)C(O)C(O)C1O (stereo unspecified) | > 100 | > 100 | > 100 | > 100 | > 100 |  | > 100 | > 100 |  |  |  |  |  |  |  |  |  |  |  | 
c1ccc(N=c2snc3scc(-c4ccccc4)n23)cc1 | 92.1 |  | > 100 | > 100 |  | > 100 | 61.9 | 81.4 |  |  |  |  |  |  |  |  |  |  |  | 

From PubChem BioAssay (NCI)
